We go through 24 compounds from patent US20160168140A1, “HETEROCYCLIC COMPOUNDS AS ANTIBIOTIC POTENTIATORS” (priority 2014, published 2016).

Assay [1] deals with panel of Gram-negative bacteria with different colistin susceptibilities. Nature of the assay: Fractional inhibitory concentration index (FICI) checkerboard assay with colistin. Particulars: for FICI Values of Colistin and Potentiator in Resistant Bacteria: FICI values of ≦0.5 indicate synergy. Format: cell-based. On the procedure:
The fractional inhibitory concentration index (FICI) was determined in combination with colistin using the broth microdilution susceptibility test method as described by the CLSI (Methods for Dilution Antimicrobial Susceptibility Tests for Bacteria That Grow Aerobically; Approved Standard-Ninth Edition. 2012. CLSI document M07-A9. CLIS, 940 West Valley Road, Suite 1400, Wayne, Pa. 19087-1898 USA). This checkerboard assay was set up with decreasing concentrations of colistin across the plate from left to right and decreasing concentrations of potentiator from top to bottom. The FICI values were then calculated using the methods of Lorian et al. (Antibiotics in Laboratory Medicine—Fifth Edition. 2005. Lippincott, Williams, & Wilkins, Philadelphia, Pa.). A panel of Gram-negative bacteria with different colistin susceptibilities were tested.
Each of the tested compounds synergized with colistin in the three species of colistin-resistant bacteria tested.

The test system of assay [2] is Acinetobacter baumannii (Ab23). Nature of the assay: MIC shift assay of antibiotics (broth microdilution). In kind it is cell-based. Conditions: for Colistin MIC Shift: A. baumannii (MDR Ab), compd. concentration 4.0 μM, colistin MIC 0.5-1.0 μg/mL; for colistin MIC shift, Ab23 at (compd concentration): fold shift of colistin MIC, nc = no changeover or no shift. The essentials:
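Broth microdilution MIC shift assay against Acinetobacter baumannii. Overnight cultures in cation-adjusted Mueller Hinton broth at 37° C. were sub-cultured 1:200, grown to OD600=0.5 to 0.8, diluted to OD600=0.01, and added (50 μL) to wells holding 50 μL of 2× antibiotic stocks for a starting OD600 of 0.005. After 18 to 20 h at 37° C. with shaking, OD600 was read to obtain MICs.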
In general terms: Broth dilution looks for growth in wells or tubes with falling amounts of substance.

Assay [3] has as its system E. coli. Described as above. Format: cell-based. Particulars: E. coli (SCR1); compd. concentration 4.0 μM; colistin MIC 0.5-1.0 μg/mL. How it is done: Minimum inhibitory concentration (MIC) shift assays were performed to determine if the test compounds could alter the MIC of existing antibacterial drugs (e.g., ciprofloxacin and colistin) for E. coli, Acinetobacter baumannii, Klebsiella pneumoniae, Pseudomonas aeruginosa, and Enterobacter cloacae. The MIC shift assay is based on the standard broth microdilution MIC determination protocol of Wiegand et al, Nat Protoc. 3(2):163-75 (2008), with slight modifications that allow for the screening of up to seven test compounds in a single plate.
On the day before an assay, bacteria were grown overnight in cation-adjusted Mueller Hinton broth (CAMHB; Teknova, Hollister, Calif.) at 37° C. in an orbital shaker and sub-cultured at a 1:200 dilution the following morning. The cells were grown to OD600=0.5 to 0.8 and then diluted to OD600=0.01. From a serial dilution of each antibiotic at (50 μL of 2× concentrated stock solutions) several concentrations were added to the wells of a sterile, transparent round-bottom 96-well plate (Phenix Research Products, Candler, N.C.), and diluted cells (50 μL) were added to the plates for a starting OD600 of 0.005. Then, a test compound (2.5 μL) was added to each well to give a final concentration of 4 or 10 μM. A row of wells lacking test compound but containing the antibiotic was used to determine the MIC of that antibiotic alone. A column of wells lacking both antibiotic and test compound served as a growth control, and an additional column containing only CAMHB was included as a sterile blank control.
The plates were incubated for 18 to 20 h at 37° C. in an orbital shaker, and the cell density (OD600) was determined the following day in a microplate reader (PolarStar Optima, BMG Labtech). The MIC shift was determined by comparing the MIC of the antibiotic alone to the MIC of the antibiotic plus test compound.

The test system of assay [4] is Ab23. The assay is described as follows: Time-kill assay with colistin and potentiator. Format: cell-based, Acinetobacter baumannii. Particulars: for time-kill: effect on Ab23 cells in the absence of colistin: compound alone (compound III at 10 μM), FIGS. 2-4; for time-kill: effect in the presence of colistin: compound plus colistin, Ab23, FIGS. 2-4. On the procedure: Colistin and potentiator were diluted to 1000× final concentrations in water and DMSO, respectively. Then, 3 μl of the appropriate dilutions were added to culture tubes. An overnight culture of Ab23 was diluted to 10^6 CFU/ml, and 3 mL of cells were added to the tubes. The cultures were incubated at 37° C. in an orbital shaker. An aliquot of the starting inoculum was serially diluted in CAMHB and spread on LB agar plates for CFU determination. At 2, 4, 8, and 24 hours, aliquots were removed from each of the culture tubes, diluted, and spread LB agar plates. The plates were incubated overnight at 37° C. The following day, the number of CFUs on each plate was counted, and the number of bacterial in each culture condition was calculated. Colistin (“C”) was tested at 2 and 8 µg/mL. The select compounds (“P”) were tested at 2 and 10 µg/mL. The dotted line indicates the limit of detection.

Where [5] appears, read: colistin-resistant A. baumannii.
Setting [6] is: colistin-resistant K. pneumoniae.
[7] abbreviates: colistin-resistant P. aeruginosa.

On to `CN(C)CCCNc1nc(-c2cccc(-c3cc(C(F)(F)F)ccc3F)c2)nc2c(C(F)(F)F)cccc12` [IV], for which the “MIC Shift of Colistin and Potentiator in Resistant Bacteria” value (shortened to “MIC Shift of Colistin and Potentiator”) is 133 x in assay [1] (setting [5]), 512 x in assay [1] (setting [6]) and 33 x in assay [1] (setting [7]). For the same compound, the “FICI Values of Colistin and Potentiator in Resistant Bacteria” value (shortened to “FICI Values of Colistin and Potentiator”) in assay [1] (setting [5]) is reported as 0.24; in assay [1] (setting [6]), 0.21; in assay [1] (setting [7]), 0.27.
Regarding `CN(C)CCCNc1nc(-c2cc(Br)cc(C(F)(F)F)c2)nc2c(Cl)cccc12` [compound 337], the “Colistin MIC Shift” value in assay [2] and in assay [3] was 4x in each case. In assay [2] (compound concentration 2 μM), the “colistin MIC shift, Ab23 at (compd concentration)” value (“colistin MIC shift, Ab23” for short) was 8-16x.
`CN(C)CCCNc1nc(-c2cc(Br)cc(C(F)(F)F)c2)nc2c(Br)cccc12` [compound 338]: the “Colistin MIC Shift” value in assay [2] and in assay [3] was 4x each time. The “colistin MIC shift, Ab23” value in assay [2] (compound concentration 2 μM) is 8-16x.
Regarding `Cc1cccc2c(NCCCN(C)C)nc(-c3cc(C(F)(F)F)cc(C(F)(F)F)c3)nc12` [compound 339], the “Colistin MIC Shift” value in assay [2] and in assay [3] was 8x each time. Moreover, the “colistin MIC shift, Ab23” value in assay [2] (compound concentration 2 μM) is recorded as 8-16x.
Take `CNCCCN(C)c1nc(-c2cc(Br)cc(C(F)(F)F)c2)nc2c(C)cccc12` [compound 342]: the “Colistin MIC Shift” value in assay [2] and in assay [3] was 8x throughout. Also, in assay [2] (compound concentration 2 μM), the “colistin MIC shift, Ab23” value is 8-16x.
For `Cc1cccc2c(NCCN(C)C)nc(-c3cc(Br)cc(C(F)(F)F)c3)nc12` [compound 345], the figures for the “Colistin MIC Shift” value in assay [2] and in assay [3] were 4x and 16x, respectively. Besides, the “colistin MIC shift, Ab23” value in assay [2] (compound concentration 2 μM) is reported as 8-16x.
Take `Cc1cccc2c(NCCCN3CCNCC3)nc(-c3cc(Br)cc(C(F)(F)F)c3)nc12` [compound 348]: the “Colistin MIC Shift” value in assay [2] is 8x; in assay [3], 16x. In addition, the “colistin MIC shift, Ab23” value in assay [2] (compound concentration 2 μM) is recorded as 8-16x.
The matching figures for `Cc1cccc2c(NCCCN(C)C)nc(-c3cc(Br)cc(C(F)(F)F)c3)nc12` [compound 353]: 8x, 8x and 8-16x.
The matching figures for `NCC(=O)n1cc(-c2ccc(Cl)c(Cl)c2)c2cc(Cl)ccc21` [compound 360]: 4x, 4x and 16x.
`CC(N)C(=O)n1cc(-c2ccc(Cl)c(Cl)c2)c2cc(Cl)ccc21` (stereo not drawn) [compound 361]: the “Colistin MIC Shift” value in assay [2] and in assay [3] was 4x throughout. Further, in assay [2] (compound concentration 2 μM), the “colistin MIC shift, Ab23” value is recorded as 16x.
Turning to `CNCCCN(C)c1nc(-c2cccc(-c3cc(C(F)(F)F)ccc3F)c2)nc2c(C)cccc12` [compound 487], the “Colistin MIC Shift” value came to 8x in assay [2] and 16x in assay [3]. In assay [2] (compound concentration 4 μM), the “colistin MIC shift, Ab23” value came out at 32x.
The like results for `CCN(CC)CCCC(C)Nc1nc(-c2cc(-c3ccccc3)cc(C(F)(F)F)c2)nc2c(C)cccc12` (stereo not drawn) [compound 492] were, in that order, 8x, 8x and 32x.
For the compound `CN(C)CCCNc1nc(-c2cc(Br)cc(C(F)(F)F)c2)nc2c(C(F)(F)F)cccc12` [compound 505], the “Colistin MIC Shift” value in assay [2] is 4x; in assay [3] it was 8x. For the same compound, the “colistin MIC shift, Ab23” value in assay [2] (compound concentration 4 μM) is 32x.
The matching figures for `Cc1cccc2c(NCCCN(C)C)nc(-c3cc(Cl)cc(C(F)(F)F)c3)nc12` [compound 506]: 4x, 8x and 16x.
Turning to `Cc1cccc2c(N(C)CCCN(C)C)nc(-c3cn(Cc4ccc(Cl)cc4)c4c(Cl)cccc34)nc12` [compound 582], the “colistin MIC shift, Ab23” value in assay [2] (compound concentration 4 μM) came out at 8x.
With `CNCCCNc1nc(-c2cn(Cc3ccc(Cl)cc3)c3c(Cl)cccc23)nc2c(C)cccc12` [compound 583], the “colistin MIC shift, Ab23” value in assay [2] (compound concentration 4 μM) was 4x.
Same read-out and setting: to `CN(C)CCCNc1nc(-c2cn(Cc3ccccc3)c3c(Cl)cccc23)nc2cc(Cl)ccc12` [compound 585] belongs 8x; to `Cc1cccc2c(NCCCN(C)C)nc(-c3cn(Cc4ccccc4)c4cc(Cl)ccc34)nc12` [compound 586], 16x.
With `Cc1cccc2c(NCCCN(C)C)nc(-c3cn(Cc4ccccc4)c4ccc(Cl)cc34)nc12` [compound 587], the “colistin MIC shift, Ab23” value in assay [2] (compound concentration 10 μM) worked out at 16x.
As for `CN(C)CCCNc1nc(-c2csc3ccc(Cl)cc23)nc2c(Cl)cccc12` [compound 592], the “colistin MIC shift, Ab23” value in assay [2] (compound concentration 4 μM) is listed as 32x.
On to `CN(C)CCCNc1nc(/C=C/c2ccc(Cl)c(Cl)c2)nc2c(C(F)(F)F)cccc12` [compound III], for which, in assay [1] (setting [5]), the “MIC Shift of Colistin and Potentiator” value worked out at 133 x; the “FICI Values of Colistin and Potentiator” value turned out to be 0.21. For the same compound, in assay [1] (setting [6]), the “MIC Shift of Colistin and Potentiator” value amounted to 533 x; the “FICI Values of Colistin and Potentiator” value was determined as 0.17. Also, in assay [1] (setting [7]), the “MIC Shift of Colistin and Potentiator” value was 33 x; the “FICI Values of Colistin and Potentiator” value is on record as 0.19. Moreover, in assay [4], the “time-kill: effect on Ab23 cells in the absence of colistin” value is on record as “reduced Ab23 in two hours, although the effect was not sustained” and the “time-kill: effect in the presence of colistin” value is recorded as “potent synergists of colistin”.
On to `FC(F)(F)c1ccc2c(-c3ccc(Cl)c(Cl)c3)n[nH]c2c1` [compound II], for which, in assay [1] (setting [5]), the “MIC Shift of Colistin and Potentiator” value came to 267 x; the “FICI Values of Colistin and Potentiator” value is reported as 0.15. In addition, in assay [1] (setting [6]), the “MIC Shift of Colistin and Potentiator” value came to 32 x; the “FICI Values of Colistin and Potentiator” value was 0.39. In addition, in assay [1] (setting [7]), the “MIC Shift of Colistin and Potentiator” value is reported as 16 x; the “FICI Values of Colistin and Potentiator” value came to 0.26. For the same compound, in assay [4], the “time-kill: effect on Ab23 cells in the absence of colistin” value was “had no effect on the cells” and the “time-kill: effect in the presence of colistin” value is “potent synergists of colistin”.
“(S)-2-amino-1-(5-chloro-3-(3,4-dichlorophenyl)-1H-indol-1-yl)butan-1-one methanesulfonate salt [compound 460]”: the “colistin MIC shift, Ab23” value in assay [2] (compound concentration 4 μM) turned out to be 32x.
“E-1-(5-bromo-3-(3,4-dichlorostyryl)-1H-indol-1-yl)-2-(dimethylamino)ethan-1-one [compound 457]”: the “colistin MIC shift, Ab23” value in assay [2] (compound concentration 4 μM) is reported as 16x.
